Assay results reported in US6203822A, “Gallium-containing compounds for the treatment of infections caused by intracellular pathogens and pathogens causing chronic pulmonary infection” (priority 1996, dated 2001).

Test system: M. tuberculosis strain H37Ra
Experiment: Radiometric BACTEC growth index assay of M. tuberculosis in broth culture, gallium nitrate
Assay type: cell-based
Conditions: BACTEC 12B
Experimental: FIG. 1 provides histograms that illustrate the inhibitory effect of gallium nitrate on M. tuberculosis in broth culture. […] FIG. 1B illustrates the results of experiments to inhibit M. tuberculosis strain H37Ra in broth culture over the range of 0 to 1040 μM concentrations gallium nitrate.
Example 1 details methods for performing the growth index assays of this invention to detect the growth of pathogenic organisms including M. tuberculosis in suspension culture. There are a number of suspension culture methods known in the art. As an example of a suspension assay, M. tuberculosis growth and gallium nitrate inhibition were quantitated using the radiometric BACTEC 460TB system (Becton Dickinson Diagnostic Instrument Systems, Sparks, Md.). […] While this and other examples are directed to the inhibition of Mycobacteria, those skilled in the art will recognize that the assays are readily adaptable to the quantitation of other intracellular bacterial pathogens capable of infecting phagocytic cells. Growth inhibition of parasites or fungi can also be readily assessed by introducing the gallium-containing compounds into cultures of the organisms under standard growth conditions.
Lyophilized M. tuberculosis Erdman strain (ATCC #35801) and H37Ra (ATCC #25177) were reconstituted in pyogen-free water (Sigma, St. Louis, Mo.), plated on 7H11 agar plates, incubated at 37° C. in 5% CO2, 95% air, and after 14 days of culture, harvested and frozen in 7H9 broth at -70° C. […] An aliquot of this suspension was diluted in formalin, counted and diluted to appropriate concentrations for use in experiments. […] The figures illustrate the recorded numbers from bottles on different days which correlate with growth index readings for the various concentrations of gallium nitrate at Day 6.
The BACTEC system (Becton Dickinson, Sparks, Md.) is an instrument to quantitate bacterial growth. […] During quantitation in the BACTEC instrument, the gas is aspirated from the vial and the ^14 CO2 radioactivity is determined on a scale from 0 to 999. […]

SMILES: O=[N+]([O-])[O-].O=[N+]([O-])[O-].O=[N+]([O-])[O-].[Ga+3] [gallium nitrate]
- inhibition of growth: markedly inhibits the growth of M. tuberculosis
- concentration with marked inhibition of growth (radiometric): approximately 100 μM
- concentration with statistically significant inhibition of growth (radiometric): 16.25 µM
